US11753407B2, “Compounds for treating spinal muscular atrophy” (PTC Therapeutics, Inc., priority 2012, dated 2023)

How the values were obtained:
[1] = system: Smn protein produced from the SMN2 gene; experiment: Smn protein in tissues of neonatal Δ7 SMA mice; type: in vivo; details: neonatal SMA Δ7 homozygous knockout mice, IP QD PND 3 to PND 9, brain, spinal cord
Protocol: This Smn protein assay compares tissues from test compound treated mice with those from DMSO vehicle treated mice to determine the increase in levels of Smn protein produced from the human SMN2 gene.
Protocol. The tissue samples in Safe-Lock tubes are weighed and the volume of RIPA buffer containing the protease inhibitor cocktail is added based on the weight to volume ratios for each type of tissue: Brain (50 mg/mL), Muscle (50 mg/mL) and Spinal Cord (25 mg/mL).
Tissues are homogenized using the TissueLyzer by bead milling. 5 mm stainless steel beads are added to the sample and shaken vigorously for 5 minutes at 30 Hz in the TissueLyzer. […] Fluorescence for each well of the plate at 665 nm and 620 nm is measured on an EnVision multilabel plate reader (Perkin-Elmer). The total protein in the tissue homogenate is measured using the BCA assay according to the manufacturer's protocol.
The normalized fluorescence signal is calculated for each sample, Blank and vehicle control well by dividing the signal at 665 nm by the signal at 620 nm. Normalizing the signal accounts for possible fluorescence quenching due to the matrix effect of the tissue homogenate. […] The ΔF value for each tissue sample well is divided by the total protein quantity (determined using the BCA assay) for that tissue sample. […]

[2] = system: SMN2 mRNA in tissues of C/C-allele SMA mice; experiment: SMN2 mRNA RT-qPCR splicing assay in animal tissues; type: in vivo; details: brain and muscle, 10 mg/kg BID oral gavage 10 days, versus vehicle (FIG. 6)
Protocol: The reverse transcription-quantitative PCR-based (RT-qPCR) assay is used to quantify the levels of the full length and Δ7 SMN2 mRNA in tissues from mice treated with test compound.
Protocol. C/C-allele SMA mice are treated by oral gavage two times per day (BID) for 10 days with test compounds re-suspended in 0.5% HPMC and 0.1% Tween-80. Tissue samples were collected and snap frozen for RNA purification.
Tissue samples (20-40 mg) are homogenized in QIAzol Lysis Reagent for 2 minutes at 20 Hz in the TissueLyser II using one stainless steel bead. After addition of chloroform, the homogenate is separated into aqueous and organic phases by centrifugation. RNA partitioned to the upper, aqueous phase is extracted and ethanol is added to provide appropriate binding conditions. The sample is then applied to the RNeasy spin column from the RNeasy Mini Kit, where total RNA binds to the membrane. The RNA is eluted in RNase-free water then stored at −20° C. and subsequently analyzed using the TaqMan RT-qPCR on the 7900HT Thermocycler. Total RNA is diluted ten fold and 2.5 μL of the diluted sample is added to the TaqMan RT-qPCR mixture.
SMN2 spliced products are identified using the following primers and probe in Table 7. Primer SMN FL Forward B (SEQ ID NO. 7) hybridizes to a nucleotide sequence in exons 7 and 8, primer SMN Δ7 Forward B (SEQ ID NO. 8) hybridizes to a nucleotide sequence in exons 6 and 8, primer SMN Reverse B (SEQ ID NO. 9) hybridizes to a nucleotide sequence in exon 8, probe SMN Probe B (SEQ ID NO. 10) hybridizes to a nucleotide sequence in exon 8. These primers and probe hybridize to nucleotide sequences common to human SMN1 and SMN2 mRNA. Since the SMA patient cells used in Example 5 contain only the SMN2 gene, RT-qPCR can quantify only SMN2 full-length and Δ7 mRNA.
The SMN forward and reverse primers are used at final concentrations of 0.4 μM. The SMN probe is used at a final concentration of 0.15 μM. The SMN-GAPDH Mix (10 μL total volume) is prepared by combining 5 μL of 2× RT-PCR buffer, 0.4 μL of 25× RT-PCR enzyme mix, 0.5 μL of 20× GAPDH primer-probe mix, 1.505 μL of water, 2.5 μL of RNA solution, 0.04 μL of 100 μM forward primer, 0.04 μL of 100 μM reverse primer, and 0.015 μL of 100 μM SMN probe. […]
The increase of SMN2 FL and decrease in SMN2 Δ7 mRNA relative to those in tissues from animals treated with vehicle control are determined from real-time PCR data using a modified ΔΔCt method (as described in Livak and Schmittgen, Methods, 2001, 25:402-8). The amplification efficiency (E) is calculated from the slope of the amplification curve for SMN2 FL, SMN2 Δ7, and GAPDH individually. The abundances of SMN2 FL, SMN2 Δ7, and GAPDH are then calculated as (1+E)^−Ct, where Ct is the threshold value for each amplicon. […]

Compound	total protein normalized Smn level ([1]; muscle, skin (FIGS. 12a-d))	SMN2 FL mRNA [2]	SMN2 Δ7 mRNA [2]	total protein normalized Smn level ([1]; muscle (FIGS. 12e-g))
COc1ccc(-c2cc(=O)n3cc(N4CCNCC4)ccc3n2)cc1OC [Cpd 6, 2-(3,4-dimethoxyphenyl)-7-(piperazin-1-yl)-4H-pyrido[1,2-a]pyrimidin-4-one]	dose dependently increased in brain, spinal cord, muscle, and skin tissues	substantially more SMN2 FL mRNA	less SMN2 Δ7 mRNA	
Cc1cn2nc(-c3cc(=O)n4cc(N5CCN(C)CC5)ccc4n3)cc2c(C)n1 [Cpd 170, 2-(4,6-dimethylpyrazolo[1,5-a]pyrazin-2-yl)-7-(4-methylpiperazin-1-yl)-4H-pyrido[1,2-a]pyrimidin-4-one]		substantially more SMN2 FL mRNA	less SMN2 Δ7 mRNA	dose dependently increased
